One may read the ΔTm as the shift of the melting midpoint relative to a reference. Usually GI50 stands for the concentration at which growth is held to half of that of the control.

The target in one test is T1, recombinant USP1 protein (Homo sapiens, UniProt O94782, DEL125-138/DEL229-408/DEL608-737).
T1 sequence (O94782 with tags, fused parts or gaps DEL125-138/DEL229-408/DEL608-737): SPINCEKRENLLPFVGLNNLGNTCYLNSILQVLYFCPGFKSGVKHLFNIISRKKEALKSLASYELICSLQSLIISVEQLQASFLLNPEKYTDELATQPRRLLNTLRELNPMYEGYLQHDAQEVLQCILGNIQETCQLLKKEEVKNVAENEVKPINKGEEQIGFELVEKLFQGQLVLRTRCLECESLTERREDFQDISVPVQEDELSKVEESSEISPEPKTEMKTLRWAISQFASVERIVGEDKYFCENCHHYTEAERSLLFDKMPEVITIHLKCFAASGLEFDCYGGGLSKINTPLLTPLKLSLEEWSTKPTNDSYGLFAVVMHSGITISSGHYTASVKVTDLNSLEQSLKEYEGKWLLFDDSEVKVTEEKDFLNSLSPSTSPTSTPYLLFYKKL
Put plainly: Binding affinity to recombinant USP1 protein by differential scanning fluorimetry. As to conditions: compound 100 µM; 0.03 mg/mL USP1 (Δ1-66, Δ125-138, Δ229-408, Δ608-737); Tm with compound minus Tm with DMSO; read-out: ΔTm (°C). In outline:
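Thermal shift readout: ΔTm is the compound-well melting temperature less the DMSO-well value, measured by real-time PCR. Compounds tested at 100 µM final against 0.03 mg/mL truncated USP1 (Δ1-66, Δ125-138, Δ229-408, Δ608-737) in pH 8.0 Tris buffer containing 150 mM NaCl, 2% glycerol, 1 mM DTT.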

The subject of the next test is UWB1.289 cells. Put plainly: Cell proliferation inhibitory activity in BRCA1/2-mutant or HRD-positive cells (Cell Titer-Glo). It is filed as cell-based. As to conditions: UWB1289; UWB1.289 cells, 144 hours after compound treatment, Cell Titer-Glo, 1.5 nM to 10 µM; read-out: GI50 UWB1.289 BRCA1 mut. An outline of the steps: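 GI50 from CellTiter-Glo luminescence after 144 h compound exposure at 37 °C. Cells seeded at 1,000 per well in MEBM/RPMI1640 mix 16–24 h beforehand; […] from 10 µM down to 1.5 nM final (3-fold steps).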
For orientation: ATP-based viability assays read luminescence as a measure of living cells.

For `COc1ncnc(C2CC2)c1-c1ncc2cc(C(=O)NCCN3CCC3)n(Cc3ccc(-c4nc(C(F)(F)F)cn4C(C)C)cc3)c2n1` [Example 149, N-(2-(azetidin-1-yl)ethyl)-2-(4-cyclopropyl-6-methoxypyrimidin-5-yl)-7-(4-(1-isopropyl-4-(trifluoromethyl)-1H-imidazol-2-yl)benzyl)-7H-pyrrolo[2,3-d]pyrimidine-6-carboxamide], the ΔTm at 100 µM at recombinant USP1 protein was over 5 °C. Also, the GI50 with UWB1.289 cells is under 100 nM.

For the compound `COc1ncnc(C2CC2)c1-c1ncc2cc(C(=O)NC3CC3)n(Cc3ccc(-c4nc(C(F)(F)F)cn4C)cc3)c2n1` [Example 150, N-cyclopropyl-2-(4-cyclopropyl-6-methoxypyrimidin-5-yl)-7-(4-(1-methyl-4-(trifluoromethyl)-1H-imidazol-2-yl)benzyl)-7H-pyrrolo[2,3-d]pyrimidine-6-carboxamide], the ΔTm at 100 µM at recombinant USP1 protein was over 5 °C. Also, the GI50 in the test on UWB1.289 cells was under 100 nM.

Take `COc1ncnc(C2CC2)c1-c1ncc2cc(C(=O)N[C@H](C)CO)n(Cc3ccc(-c4nc(C(F)(F)F)cn4C)cc3)c2n1` [Example 151, (R) -2-(4-cyclopropyl-6-methoxypyrimidin-5-yl)-N-(1-hydroxypropan-2-yl)-7-(4-(1-methyl-4-(trifluoromethyl)-1H-imidazol-2-yl)benzyl)-7H-pyrrolo[2,3-d]pyrimidine-6-carboxamide]: the ΔTm at 100 µM on recombinant USP1 protein is over 5 °C. Further, the GI50 in the test with UWB1.289 cells was under 100 nM.

As for `COc1ncnc(C2CC2)c1-c1ncc2cc(C(=O)NC[C@H](O)CO)n(Cc3ccc(-c4nc(C(F)(F)F)cn4C)cc3)c2n1` [Example 152, (S)-2-(4-cyclopropyl-6-methoxypyrimidin-5-yl)-N-(2,3-dihydroxypropy 1)-7-(4-(1-methyl-4-(trifluoromethyl)-1H-imidazol-2-yl)benzyl)-7H-pyrrolo[2,3-d]pyrimidine-6-carboxamide], the ΔTm at 100 µM on recombinant USP1 protein is over 5 °C. The 50% growth inhibitory concentration (GI50) in the test with UWB1.289 cells lay within 100 to 500 nM.

Turning to `COc1ncnc(C2CC2)c1-c1ncc2cc(C(=O)NC3CCN(C)CC3)n(Cc3ccc(-c4nc(C(F)(F)F)cn4C)cc3)c2n1` [Example 153, 2-(4-cyclopropyl-6-methoxypyrimidin-5-yl)-7-(4-(1-methyl-4-(trifluoromethyl)-1H-imidazol-2-yl)benzyl)-N-(1-methylpiperidin-4-yl)-7H-pyrrolo[2,3-d]pyrimidine-6-carboxamide], the ΔTm at 100 µM on recombinant USP1 protein is over 5 °C. Besides, in the test with UWB1.289 cells, the GI50 is under 100 nM.

For the compound `CNC(=O)c1cc2cnc(-c3c(OC)ncnc3C3CC3)cc2n1Cc1ccc(-c2nc(C(F)(F)F)cn2C(C)C)cc1` [Example 154, 6-(4-cyclopropyl-6-methoxypyrimidin-5-yl)-1-(4-(1-isopropyl-4-(trifluoromethyl)-1H-imidazol-2-yl)benzyl)-N-methyl-1H-pyrrolo[3,2-c]pyridine-2-carboxamide], the ΔTm at 100 µM on recombinant USP1 protein was over 5 °C. For the same compound, the GI50 in the test on UWB1.289 cells is under 100 nM.

Regarding `COc1ncnc(C2CC2)c1-c1ncc2cc(C(=O)N[C@H](CO)C(C)C)n(Cc3ccc(-c4nc(C(F)(F)F)cn4C(C)C)cc3)c2n1` [Example 155, (S)-2-(4-cyclopropyl-6-methoxypyrimidin-5-yl)-N-(1-hydroxy-3-methylbutan-2-yl)-7-(4-(1-isopropyl-4-(trifluoromethyl)-1H-imidazol-2-yl)benzyl)-7H-pyrrolo[2,3-d]pyrimidine-6-carboxamide], the ΔTm at 100 µM at recombinant USP1 protein is over 5 °C. For the same compound, the GI50 in the test with UWB1.289 cells was under 100 nM.

In the case of `COc1ncnc(C2CC2)c1-c1ncc2cc(C(=O)NC(C)(C)CO)n(Cc3ccc(-c4nc(C(F)(F)F)cn4C(C)C)cc3)c2n1` [Example 156, 2-(4-cyclopropyl-6-methoxypyrimidin-5-yl)-N-(1-hydroxy-2-methylpropan-2-yl)-7-(4-(1-isopropyl-4-(trifluoromethyl)-1H-imidazol-2-yl)benzyl)-7H-pyrrolo[2,3-d]pyrimidine-6-carboxamide], on recombinant USP1 protein, the ΔTm at 100 µM is over 5 °C. Also, the GI50 in the test with UWB1.289 cells is under 100 nM.

Values taken from patent EP4806898A1, “HETEROARYL DERIVATIVE COMPOUND AND USE THEREOF” (Voronoi Inc., priority 2023, dated 2025).
